“And” between values parts separate entries of the source, which are not always exact repeats. Identical values can stand only once.
Legend:
PCP = assay: Abuse liability binding screen, PCP (antagonist radioligand); settings: 2.5E−05M
Protocol: (§1) Compound binding was calculated as a % inhibition of the binding of a radioactively labeled ligand specific for each target.

[1] = biological target: T1, μ-opioid receptor expressed in HEK cells (Mus musculus, UniProt P42866); assay: Opioid cell functional assay, opioid-antagonist assay, HEK-μ (CTOP); type: cell-based
T1 construct: expressed in transfected cells; host or cells: HEK (human embryonic kidney) cells

[2] = tested on: Cl^− channel (GABA-gated); assay: Abuse liability binding screen, Cl− channel (GABA-gated) (antagonist radioligand); settings: 2.5E−05M
Protocol: as §1

NMDA = assay: Abuse liability binding screen, NMDA (antagonist radioligand); settings: 2.5E−05M
Protocol: as §1

Na^+ channel (site 2) = assay: Abuse liability binding screen, Na+ channel (site 2) (antagonist radioligand); settings: 2.5E−05M
Protocol: as §1

[3] = Plasma Cmax in HD patients; settings: human
μ (MOP) (h) = μ (MOP) (h) (Homo sapiens, UniProt P35372); assay: biochemical; type: binding
Protocol: as §1

[4] = biological target: T2, cloned human κ-opioid receptor expressed in CHO (Homo sapiens, UniProt P41145); assay: cell-based; settings: opioid-agonist assay
kainate = assay: Abuse liability binding screen, kainate (agonist radioligand); settings: 2.5E−05M
Protocol: as §1

[5] = biological target: T3, cloned human δ-opioid receptor expressed in CHO (Homo sapiens, UniProt P41143); assay: Opioid receptor binding study, CHO-δ, [3H]DPDPE; settings: @ 25,000 nM, [3H]DADLE, read-out: % inhibition printed in the IC50 column
T3 construct: expressed in transfected cells; host or cells: CHO cells

[6] = biological target: T3, cloned human δ-opioid receptor expressed in CHO; assay: Opioid cell functional assay, opioid-agonist assay, CHO-δ; type: cell-based; settings: cell functional assays
BZD (central) = assay: Abuse liability binding screen, BZD (central) (agonist radioligand); settings: 2.5E−05M
Protocol: as §1

[7] = biological target: T1, μ-opioid receptor expressed in HEK cells; assay: Opioid cell functional assay, opioid-agonist assay, HEK-μ; type: cell-based
ER (non-selective) (h) = assay: Abuse liability binding screen, ER (non-selective) (h) (agonist radioligand); parameters: species or system human; settings: 2.5E−05M
Protocol: as §1

OX2 (h) = biological target: T4, OX2 (h) (Homo sapiens, UniProt O43614); assay: Abuse liability binding screen, OX2 (h) (agonist radioligand)
T4 sequence (O43614 1-444): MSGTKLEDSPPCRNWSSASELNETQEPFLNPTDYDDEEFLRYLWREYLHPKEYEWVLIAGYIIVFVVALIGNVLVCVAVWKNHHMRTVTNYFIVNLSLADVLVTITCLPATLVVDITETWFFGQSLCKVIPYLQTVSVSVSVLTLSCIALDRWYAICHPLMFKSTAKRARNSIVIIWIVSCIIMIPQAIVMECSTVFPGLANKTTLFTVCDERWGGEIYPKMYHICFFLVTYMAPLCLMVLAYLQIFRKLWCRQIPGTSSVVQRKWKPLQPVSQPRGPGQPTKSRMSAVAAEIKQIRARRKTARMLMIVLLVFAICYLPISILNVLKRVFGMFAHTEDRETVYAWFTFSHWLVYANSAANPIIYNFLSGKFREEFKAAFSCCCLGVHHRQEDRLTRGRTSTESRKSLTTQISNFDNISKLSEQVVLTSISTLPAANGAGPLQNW
Protocol: […]. The abuse liability screen included 44 targets (receptors, transporters, on gated-channel systems) related to the dopamine, norepinephrine, serotonin, gamma-aminobutyric acid (GABA), acetylcholine, N-methyl-D-aspartate (NMDA) cannabinoid and opioid neurotransmitter systems as recommended in FDA Draft guidance on Assessment of Abuse Potential of Drugs, January 2010.
as §1
Results showing an inhibition or stimulation higher than 50% are considered to represent significant effects of the test compounds.

AMPA = assay: Abuse liability binding screen, AMPA (antagonist radioligand); settings: 2.5E−05M
Protocol: as §1

[8] = biological target: T1, μ-opioid receptor expressed in HEK cells; assay: Opioid receptor binding study, HEK-μ, [3H]DAMGO
[9] = biological target: T2, cloned human κ-opioid receptor expressed in CHO; assay: cell-based; parameters: Max Inh (%): dose or concentration left out as unconfirmed; settings: opioid-antagonist assay
[10] = biological target: T2, cloned human κ-opioid receptor expressed in CHO; assay: biochemical; type: binding
[11] = tested on: glycine (strychnine−insensitive); type: binding; settings: 2.5E−05M
Protocol: as §1

κ (KOP) = κ (KOP) (Rattus norvegicus, UniProt P34975); assay: Binding screen and IC50 determination, κ (KOP) (agonist radioligand)
Protocol: as §1

GABA transporter = assay: Abuse liability binding screen, GABA transporter (antagonist radioligand); settings: 2.5E−05M
Protocol: as §1

[12] = against a μ-opioid receptor agonist ligand

Chain of μ (MOP) (h) (P35372 whole entry): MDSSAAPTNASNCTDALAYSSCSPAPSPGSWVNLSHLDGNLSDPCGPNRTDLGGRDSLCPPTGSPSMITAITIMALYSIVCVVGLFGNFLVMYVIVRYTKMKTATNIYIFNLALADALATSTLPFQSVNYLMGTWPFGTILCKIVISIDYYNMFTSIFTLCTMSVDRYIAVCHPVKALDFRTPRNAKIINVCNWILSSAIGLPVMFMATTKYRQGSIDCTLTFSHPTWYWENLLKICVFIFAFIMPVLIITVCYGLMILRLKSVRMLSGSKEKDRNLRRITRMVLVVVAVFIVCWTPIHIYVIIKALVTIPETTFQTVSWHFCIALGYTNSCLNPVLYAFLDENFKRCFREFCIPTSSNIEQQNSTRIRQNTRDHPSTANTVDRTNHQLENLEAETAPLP
Chain of κ (KOP) (P34975 whole entry): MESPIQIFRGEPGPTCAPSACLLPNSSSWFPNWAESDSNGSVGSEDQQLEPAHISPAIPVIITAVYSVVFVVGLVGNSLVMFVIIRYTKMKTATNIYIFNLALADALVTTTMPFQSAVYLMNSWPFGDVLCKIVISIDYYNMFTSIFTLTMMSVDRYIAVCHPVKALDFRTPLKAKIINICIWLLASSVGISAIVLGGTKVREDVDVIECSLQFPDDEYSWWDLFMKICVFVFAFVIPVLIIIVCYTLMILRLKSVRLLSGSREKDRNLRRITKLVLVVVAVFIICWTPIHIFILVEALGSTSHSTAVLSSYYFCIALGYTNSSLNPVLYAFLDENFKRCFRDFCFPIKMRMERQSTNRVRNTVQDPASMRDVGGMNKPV
T2 sequence (P41145 whole entry): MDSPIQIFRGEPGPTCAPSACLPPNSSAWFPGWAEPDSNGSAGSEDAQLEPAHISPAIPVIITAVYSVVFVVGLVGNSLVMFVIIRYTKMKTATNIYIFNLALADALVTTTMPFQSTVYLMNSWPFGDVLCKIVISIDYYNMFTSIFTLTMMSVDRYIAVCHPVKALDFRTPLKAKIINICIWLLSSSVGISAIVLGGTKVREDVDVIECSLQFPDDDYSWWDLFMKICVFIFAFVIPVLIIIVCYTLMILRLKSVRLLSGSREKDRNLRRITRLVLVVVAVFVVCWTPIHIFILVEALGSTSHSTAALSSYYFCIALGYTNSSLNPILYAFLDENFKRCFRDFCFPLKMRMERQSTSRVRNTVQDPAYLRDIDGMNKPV
T1 sequence (P42866 whole entry): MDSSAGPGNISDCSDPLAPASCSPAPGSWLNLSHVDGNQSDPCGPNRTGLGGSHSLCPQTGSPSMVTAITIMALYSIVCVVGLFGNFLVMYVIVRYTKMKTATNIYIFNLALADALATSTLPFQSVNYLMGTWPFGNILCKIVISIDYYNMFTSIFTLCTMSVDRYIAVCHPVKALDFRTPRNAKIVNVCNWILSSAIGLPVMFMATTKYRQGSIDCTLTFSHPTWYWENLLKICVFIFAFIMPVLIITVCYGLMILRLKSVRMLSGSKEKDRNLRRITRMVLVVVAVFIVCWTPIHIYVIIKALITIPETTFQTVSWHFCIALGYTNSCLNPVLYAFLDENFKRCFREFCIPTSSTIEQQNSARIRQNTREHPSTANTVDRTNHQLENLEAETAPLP
T3 sequence (P41143 whole entry): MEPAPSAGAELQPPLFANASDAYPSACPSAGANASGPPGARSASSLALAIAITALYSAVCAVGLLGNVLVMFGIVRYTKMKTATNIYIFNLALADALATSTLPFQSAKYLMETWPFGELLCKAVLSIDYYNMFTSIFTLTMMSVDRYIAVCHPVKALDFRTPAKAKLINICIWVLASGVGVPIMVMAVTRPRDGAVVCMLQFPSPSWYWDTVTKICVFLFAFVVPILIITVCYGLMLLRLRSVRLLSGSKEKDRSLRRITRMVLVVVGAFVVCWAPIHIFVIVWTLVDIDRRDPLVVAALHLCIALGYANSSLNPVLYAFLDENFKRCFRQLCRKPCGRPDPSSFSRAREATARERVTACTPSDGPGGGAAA

O=C(O)CC(CO)CN1CC[C@]23c4c5ccc(O)c4O[C@H]2[C@@H](O)CC[C@@]3(O)[C@H]1C5 (some centres unmarked) [Compound 1]
% Inhibition of Control Specific Binding 1st (PCP): −12.2% | % Inhibition of Control Specific Binding 2nd (PCP): −1.4% | % Inhibition of Control Specific Binding Mean (PCP): −6.8% | IC50 [1]: > 30 µM | inhibition at 30 µM ([1]; HEK293, read-out: Max Inh (%)): -1% | % Inhibition of Control Specific Binding 1st [2]: 1.7% | % Inhibition of Control Specific Binding 2nd [2]: 1.0% | % Inhibition of Control Specific Binding Mean [2]: 1.3% | % Inhibition of Control Specific Binding 1st (NMDA): −12.5% | % Inhibition of Control Specific Binding 2nd (NMDA): −9.8% | % Inhibition of Control Specific Binding Mean (NMDA): −11.1% | % Inhibition of Control Specific Binding 1st (Na^+ channel (site 2)): −4.4% | % Inhibition of Control Specific Binding 2nd (Na^+ channel (site 2)): 21.0% | % Inhibition of Control Specific Binding Mean (Na^+ channel (site 2)): 8.3% | Cmax [3]: ~16 µM | % Inhibition of Control Specific Binding Mean (μ (MOP) (h); 2.5E−05M): 92.0% | nH (μ (MOP) (h); IC50 determination): 0.6 | IC50 (μ (MOP) (h); [12]): 3.2 µM | Ki (μ (MOP) (h); [12]): 1.3 µM | EC50 [4]: > 100 µM | Max Inh (%) [4]: 14% | % Inhibition of Control Specific Binding 1st (kainate): 6.3% | % Inhibition of Control Specific Binding 2nd (kainate): 34.1% | % Inhibition of Control Specific Binding Mean (kainate): 20.2% | inhibition at 25 µM [5]: 11% | activity at the delta receptor [6]: no activity | % Inhibition of Control Specific Binding 1st (BZD (central)): 3.4% | % Inhibition of Control Specific Binding 2nd (BZD (central)): 3.0% | % Inhibition of Control Specific Binding Mean (BZD (central)): 3.2% | EC50 ([7]; EC50 (nM), opioid-agonist assay, HEK-μ): 78000 nM and ~78000 nM | EC50 ([7]; EC50, μ-opioid receptor partial agonist/antagonist): ~173000 nM | μ-agonist EC50 relative to Cmax in HD patients ([7]; EC50 exceeding Cmax): ~4 fold | Max Inh (%) ([7]; opioid-agonist assay, HEK-μ): 61% | % Inhibition of Control Specific Binding 1st (ER (non-selective) (h)): −8.0% | % Inhibition of Control Specific Binding 2nd (ER (non-selective) (h)): 4.3% | % Inhibition of Control Specific Binding Mean (ER (non-selective) (h)): −1.9% | % Inhibition of Control Specific Binding 1st (OX2 (h); 2.5E−05M): −9.6% | % Inhibition of Control Specific Binding 2nd (OX2 (h); 2.5E−05M): −11.9% | % Inhibition of Control Specific Binding Mean (OX2 (h); 2.5E−05M): −10.7% | % Inhibition of Control Specific Binding 1st (AMPA): 0.9% | % Inhibition of Control Specific Binding 2nd (AMPA): −3.7% | % Inhibition of Control Specific Binding Mean (AMPA): −1.4% | IC50 [8]: 3.2 µM | Ki [8]: 1.3 µM | NAL Selectivity relative to Comp1 / M5 (Compound 1 or M5 Ki/NAL Ki) ([8]; μ-receptor): 929 | Max Inh (%) [9]: −10% @ | IC50 ([9]; Nor-BNI, read-out: EC50 (nM) column (IC50 per footnote)): > 30000 nM | IC50 ([10]; CHO-κ, [3H]U 69593): 74 µM | Ki ([10]; CHO-κ, [3H]U 69593): 49 µM | NAL Selectivity relative to Comp1 / M5 (Compound 1 or M5 Ki/NAL Ki) ([10]; k-receptor): 13,611 | % Inhibition of Control Specific Binding 1st [11]: −13.5% | % Inhibition of Control Specific Binding 2nd [11]: −9.7% | % Inhibition of Control Specific Binding Mean [11]: −11.6% | IC50 (κ (KOP)): 74 µM | Ki (κ (KOP)): 49 µM | nH (κ (KOP); IC50 determination): 0.7 | % Inhibition of Control Specific Binding 1st (GABA transporter): 7.4% | % Inhibition of Control Specific Binding 2nd (GABA transporter): −6.2% | % Inhibition of Control Specific Binding Mean (GABA transporter): 0.6%

Oc1ccc2c3c1O[C@H]1[C@@H](O)CC[C@@]4(O)[C@@H](C2)N(CC2CCC2)CC[C@]314 [Nalbuphine, nalbuphine]
% Inhibition of Control Specific Binding 1st (OX2 (h); 1.0E−05M): −11.3% | % Inhibition of Control Specific Binding 2nd (OX2 (h); 1.0E−05M): −7.4% | % Inhibition of Control Specific Binding Mean (OX2 (h); 1.0E−05M): −9.4%
